# Assay results from ChEMBL document CHEMBL5154944, “Discovery of Aryloxyphenyl-Heptapeptide Hybrids as Potent and Selective Matrix Metalloproteinase-2 Inhibitors for the Treatment of Idiopathic Pulmonary Fibrosis” (J Med Chem, 2022).
# Non-standard residues stand in square brackets, D forms with d. Residues, ends and D or L forms follow the SMILES beside them. *: point of attachment. Benzoyl(4-OPh(4-CONH2)) = NC(=O)c1ccc(Oc2ccc(C(=O)*)cc2)cc1; Benzenesulfonyl(4-OPh) = O=S(=O)(c1ccc(Oc2ccccc2)cc1)*; Benzenesulfonyl(4-Ph) = O=S(=O)(c1ccc(-c2ccccc2)cc1)*; X1 = O=C(CCCCS(=O)(=O)c1ccc(Oc2ccccc2)cc1)*; Benzoyl(4-OPh) = O=C(c1ccc(Oc2ccccc2)cc1)*; X2 = O=C(c1ccc(Oc2ccc(F)cc2)cc1)*; NMeI = CC[C@H](C)[C@H](NC)C(=O)O; NMeE = CN[C@@H](CCC(=O)O)C(=O)O; NMeL = CN[C@@H](CC(C)C)C(=O)O; NMeM = CN[C@@H](CCSC)C(=O)O; NMeV = CN[C@H](C(=O)O)C(C)C; β3hP = O=C(O)C[C@@H]1CCCN1; Orn = NCCC[C@H](N)C(=O)O; Dab = NCC[C@H](N)C(=O)O; Dap = NC[C@H](N)C(=O)O; Ahx = NCCCCCC(=O)O; Ava = NCCCCC(=O)O; GABA = NCCCC(=O)O; βAla = NCCC(=O)O
# What was measured:
# Collagenase 3 = Collagenase 3 (Homo sapiens, UniProt P45452)
# [1] = target: 72 kDa type IV collagenase (Homo sapiens, UniProt P08253)
# 72 kDa type IV collagenase, sequence (P08253 whole entry): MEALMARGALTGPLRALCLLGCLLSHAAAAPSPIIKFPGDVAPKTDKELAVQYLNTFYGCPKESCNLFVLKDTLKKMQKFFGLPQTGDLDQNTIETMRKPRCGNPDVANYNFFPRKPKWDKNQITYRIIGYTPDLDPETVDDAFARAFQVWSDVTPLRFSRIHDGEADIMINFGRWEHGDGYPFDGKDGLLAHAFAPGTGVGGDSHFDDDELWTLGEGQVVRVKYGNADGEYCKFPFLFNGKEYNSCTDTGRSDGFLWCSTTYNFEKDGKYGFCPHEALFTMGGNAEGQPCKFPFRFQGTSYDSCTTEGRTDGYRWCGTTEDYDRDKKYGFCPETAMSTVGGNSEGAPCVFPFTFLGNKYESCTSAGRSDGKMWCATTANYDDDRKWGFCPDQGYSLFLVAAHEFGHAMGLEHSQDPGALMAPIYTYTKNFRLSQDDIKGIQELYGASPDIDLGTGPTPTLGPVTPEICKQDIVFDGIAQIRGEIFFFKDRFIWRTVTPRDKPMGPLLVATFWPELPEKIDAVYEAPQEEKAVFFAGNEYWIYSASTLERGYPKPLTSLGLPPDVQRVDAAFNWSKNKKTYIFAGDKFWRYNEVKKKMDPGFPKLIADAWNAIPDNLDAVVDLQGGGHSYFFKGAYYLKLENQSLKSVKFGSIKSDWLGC
# Homo sapiens = species: Homo sapiens; assay: Selectivity ratio of IC50 for recombinant human MMP12 to IC50 for recombinant human MMP2
# [2] = target: Macrophage metalloelastase (Homo sapiens, UniProt P39900)
# Macrophage metalloelastase, sequence (P39900 whole entry): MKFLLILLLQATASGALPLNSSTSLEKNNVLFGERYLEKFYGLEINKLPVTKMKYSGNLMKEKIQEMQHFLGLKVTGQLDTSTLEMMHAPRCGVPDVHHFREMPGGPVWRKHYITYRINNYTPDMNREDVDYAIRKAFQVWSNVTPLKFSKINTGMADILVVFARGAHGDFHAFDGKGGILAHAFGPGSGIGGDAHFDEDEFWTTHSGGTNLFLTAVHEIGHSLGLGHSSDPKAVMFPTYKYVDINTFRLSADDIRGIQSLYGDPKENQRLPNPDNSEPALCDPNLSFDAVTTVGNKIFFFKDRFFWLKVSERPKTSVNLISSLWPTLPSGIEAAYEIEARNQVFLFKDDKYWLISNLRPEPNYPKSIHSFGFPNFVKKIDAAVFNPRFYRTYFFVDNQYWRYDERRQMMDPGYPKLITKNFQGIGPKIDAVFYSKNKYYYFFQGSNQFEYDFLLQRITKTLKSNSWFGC
# [3] = target: Matrix metalloproteinase-14 (Homo sapiens, UniProt P50281); assay: Inhibition of recombinant human MMP14 using MOCAc-Lys-Pro-Leu-Gly-Leu-A2pr(Dnp)-Ala-Arg-NH2 as substrate preincubated for 15 mins followed by substrate addition by fluroscence based assay
# Matrilysin = target: T1, Matrilysin (Homo sapiens, UniProt P09237)
# T1 sequence (P09237 whole entry): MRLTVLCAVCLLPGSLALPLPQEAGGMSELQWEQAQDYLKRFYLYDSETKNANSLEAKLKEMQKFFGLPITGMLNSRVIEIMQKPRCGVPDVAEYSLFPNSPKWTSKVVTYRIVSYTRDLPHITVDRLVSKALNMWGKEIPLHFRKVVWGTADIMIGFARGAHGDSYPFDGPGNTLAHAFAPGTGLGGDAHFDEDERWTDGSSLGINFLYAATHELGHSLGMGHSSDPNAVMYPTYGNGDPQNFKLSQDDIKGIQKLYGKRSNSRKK
IC50 [2],IC50 [3],IC50 (Matrilysin),Structure (SMILES),IC50 (Collagenase 3),IC50 [1],Ratio IC50 (Homo sapiens)
916 nM,–,–,CSCC[C@H](NC(=O)[C@H](CC(C)C)NC(=O)[C@H](C)NC(=O)[C@H](CC(=O)O)NC(=O)[C@H](CC(N)=O)NC(=O)CNS(=O)(=O)c1ccc(Oc2ccccc2)cc1)C(=O)N1CCC[C@H]1C(N)=O ({Benzenesulfonyl(4-OPh)}-GNDALMP-NH2),6470 nM,69 nM,13
4170 nM,–,–,CSCC[C@H](NC(=O)[C@H](CC(C)C)NC(=O)[C@H](C)NC(=O)[C@H](CC(=O)O)NC(=O)[C@H](CC(N)=O)NC(=O)CNS(=O)(=O)c1ccc(-c2ccccc2)cc1)C(=O)N1CCC[C@H]1C(N)=O ({Benzenesulfonyl(4-Ph)}-GNDALMP-NH2),> 10000 nM,> 100 nM,–

# More lines, now with the values behind:
Structure (SMILES),IC50 [2],IC50 [3],IC50 (Matrilysin),IC50 (Collagenase 3),IC50 [1],Ratio IC50 (Homo sapiens)
CSCC[C@H](NC(=O)[C@H](CC(C)C)NC(=O)[C@H](C)NC(=O)[C@H](CC(=O)O)NC(=O)[C@H](CC(N)=O)NC(=O)CCCCS(=O)(=O)c1ccc(Oc2ccccc2)cc1)C(=O)N1CCC[C@H]1C(N)=O (X1-NDALMP-NH2),–,–,–,57 nM,0.089 nM,69
CSCC[C@H](NC(=O)[C@H](CC(C)C)NC(=O)[C@H](C)NC(=O)[C@H](CC(=O)O)NC(=O)[C@H](CC(N)=O)NC(=O)CCCNS(=O)(=O)c1ccc(Oc2ccccc2)cc1)C(=O)N1CCC[C@H]1C(N)=O ({Benzenesulfonyl(4-OPh)-GABA}-NDALMP-NH2),–,–,–,55 nM,0.083 nM,145
CC[C@H](C)[C@@H](C(=O)N1CCC[C@H]1C(N)=O)N(C)C(=O)[C@H](CC(C)C)NC(=O)[C@H](C)NC(=O)[C@H](CC(=O)O)NC(=O)[C@H](CC(N)=O)NC(=O)CCCNS(=O)(=O)c1ccc(Oc2ccccc2)cc1 ({Benzenesulfonyl(4-OPh)-GABA}-NDAL[NMeI]P-NH2),–,–,–,16 nM,0.097 nM,186
CC(C)C[C@H](NC(=O)[C@H](C)NC(=O)[C@H](CC(=O)O)NC(=O)[C@H](CC(N)=O)NC(=O)CCCNS(=O)(=O)c1ccc(Oc2ccccc2)cc1)C(=O)N(C)[C@@H](CC(C)C)C(=O)N1CCC[C@H]1C(N)=O ({Benzenesulfonyl(4-OPh)-GABA}-NDAL[NMeL]P-NH2),–,–,–,9.2 nM,0.066 nM,62
CC(C)C[C@H](NC(=O)[C@H](C)NC(=O)[C@H](CC(=O)O)NC(=O)[C@H](CC(N)=O)NC(=O)CCCNS(=O)(=O)c1ccc(Oc2ccccc2)cc1)C(=O)N(C)[C@@H](CC(C)C)C(=O)N1CCC[C@H]1CC(N)=O ({Benzenesulfonyl(4-OPh)-GABA}-NDAL[NMeL][β3hP]-NH2),–,–,–,15 nM,0.055 nM,24
CSCC[C@@H](C(=O)N1CCC[C@H]1C(N)=O)N(C)C(=O)[C@H](CC(C)C)NC(=O)[C@H](C)NC(=O)[C@H](CC(=O)O)NC(=O)[C@H](CC(N)=O)NC(=O)CCCNS(=O)(=O)c1ccc(Oc2ccccc2)cc1 ({Benzenesulfonyl(4-OPh)-GABA}-NDAL[NMeM]P-NH2),–,–,–,7 nM,0.128 nM,57
CSCC[C@@H](C(=O)N1CCC[C@H]1CC(N)=O)N(C)C(=O)[C@H](CC(C)C)NC(=O)[C@H](C)NC(=O)[C@H](CC(=O)O)NC(=O)[C@H](CC(N)=O)NC(=O)CCCNS(=O)(=O)c1ccc(Oc2ccccc2)cc1 ({Benzenesulfonyl(4-OPh)-GABA}-NDAL[NMeM][β3hP]-NH2),–,–,–,5.8 nM,0.044 nM,43
CC(C)C[C@H](NC(=O)[C@H](C)NC(=O)[C@H](CC(=O)O)NC(=O)[C@H](CC(N)=O)NC(=O)CCCNS(=O)(=O)c1ccc(Oc2ccccc2)cc1)C(=O)N(C)[C@H](C(=O)N1CCC[C@H]1C(N)=O)C(C)C ({Benzenesulfonyl(4-OPh)-GABA}-NDAL[NMeV]P-NH2),–,–,–,21 nM,0.078 nM,282
CC(C)C[C@H](NC(=O)[C@H](C)NC(=O)[C@H](CC(=O)O)NC(=O)[C@H](CC(N)=O)NC(=O)CCCNS(=O)(=O)c1ccc(Oc2ccccc2)cc1)C(=O)N(C)[C@H](C(=O)N1CCC[C@H]1CC(N)=O)C(C)C ({Benzenesulfonyl(4-OPh)-GABA}-NDAL[NMeV][β3hP]-NH2),–,–,–,25 nM,0.046 nM,122
CC[C@H](C)[C@@H](C(=O)N1CCC[C@H]1CC(N)=O)N(C)C(=O)[C@H](CC(C)C)NC(=O)[C@H](CCN)NC(=O)[C@H](CC(=O)O)NC(=O)[C@H](CC(N)=O)NC(=O)CCCNS(=O)(=O)c1ccc(Oc2ccccc2)cc1 ({Benzenesulfonyl(4-OPh)-GABA}-ND[Dab]L[NMeI][β3hP]-NH2),–,–,–,443 nM,0.09 nM,6010
CC[C@H](C)[C@@H](C(=O)N1CCC[C@H]1CC(N)=O)N(C)C(=O)[C@H](CC(C)C)NC(=O)[C@H](CN)NC(=O)[C@H](CC(=O)O)NC(=O)[C@H](CC(N)=O)NC(=O)CCCNS(=O)(=O)c1ccc(Oc2ccccc2)cc1 ({Benzenesulfonyl(4-OPh)-GABA}-ND[Dap]L[NMeI][β3hP]-NH2),–,–,–,274 nM,0.13 nM,977
CC[C@H](C)[C@@H](C(=O)N1CCC[C@H]1CC(N)=O)N(C)C(=O)[C@H](CC(C)C)NC(=O)[C@H](CCCN)NC(=O)[C@H](CC(=O)O)NC(=O)[C@H](CC(N)=O)NC(=O)CCCNS(=O)(=O)c1ccc(Oc2ccccc2)cc1 ({Benzenesulfonyl(4-OPh)-GABA}-ND[Orn]L[NMeI][β3hP]-NH2),–,–,–,134 nM,0.61 nM,189
CSCC[C@H](NC(=O)[C@H](CC(C)C)NC(=O)[C@H](C)NC(=O)[C@H](CC(=O)O)NC(=O)[C@H](CC(N)=O)NC(=O)CCNS(=O)(=O)c1ccc(Oc2ccccc2)cc1)C(=O)N1CCC[C@H]1C(N)=O ({Benzenesulfonyl(4-OPh)-βAla}-NDALMP-NH2),–,–,–,114 nM,0.49 nM,51
CSCC[C@H](NC(=O)[C@H](CC(C)C)NC(=O)[C@H](C)NC(=O)[C@H](CC(=O)O)NC(=O)[C@H](CC(N)=O)NC(=O)CCCCNS(=O)(=O)c1ccc(-c2ccccc2)cc1)C(=O)N1CCC[C@H]1C(N)=O ({Benzenesulfonyl(4-Ph)-Ava}-NDALMP-NH2),–,–,–,1710 nM,2.9 nM,12
CSCC[C@H](NC(=O)[C@H](CC(C)C)NC(=O)[C@H](C)NC(=O)[C@H](CC(=O)O)NC(=O)[C@H](CC(N)=O)NC(=O)CCCNS(=O)(=O)c1ccc(-c2ccccc2)cc1)C(=O)N1CCC[C@H]1C(N)=O ({Benzenesulfonyl(4-Ph)-GABA}-NDALMP-NH2),–,–,–,1120 nM,9.2 nM,5
CSCC[C@H](NC(=O)[C@H](CC(C)C)NC(=O)[C@H](C)NC(=O)[C@H](CC(=O)O)NC(=O)[C@H](CC(N)=O)NC(=O)CCNS(=O)(=O)c1ccc(-c2ccccc2)cc1)C(=O)N1CCC[C@H]1C(N)=O ({Benzenesulfonyl(4-Ph)-βAla}-NDALMP-NH2),–,–,–,1730 nM,6.3 nM,18
CC(C)C[C@H](NC(=O)[C@H](CCN)NC(=O)[C@H](CC(=O)O)NC(=O)[C@H](CC(N)=O)NC(=O)CCCCCNC(=O)c1ccc(Oc2ccc(C(N)=O)cc2)cc1)C(=O)N(C)[C@@H](CCC(=O)O)C(=O)N1CCC[C@H]1CC(N)=O ({Benzoyl(4-OPh(4-CONH2))-Ahx}-ND[Dab]L[NMeE][β3hP]-NH2),–,–,–,192 nM,0.13 nM,15600
CC(C)C[C@H](NC(=O)[C@H](CCN)NC(=O)[C@H](CC(=O)O)NC(=O)[C@H](CC(N)=O)NC(=O)CCCNC(=O)c1ccc(Oc2ccc(C(N)=O)cc2)cc1)C(=O)N(C)[C@@H](CCC(=O)O)C(=O)N1CCC[C@H]1CC(N)=O ({Benzoyl(4-OPh(4-CONH2))-GABA}-ND[Dab]L[NMeE][β3hP]-NH2),–,–,–,540 nM,0.17 nM,23100
CC(C)C[C@H](NC(=O)[C@H](CCN)NC(=O)[C@H](CC(=O)O)NC(=O)[C@H](CC(N)=O)NC(=O)CCNC(=O)c1ccc(Oc2ccc(C(N)=O)cc2)cc1)C(=O)N(C)[C@@H](CCC(=O)O)C(=O)N1CCC[C@H]1CC(N)=O ({Benzoyl(4-OPh(4-CONH2))-βAla}-ND[Dab]L[NMeE][β3hP]-NH2),–,–,–,146 nM,0.53 nM,8390
CC(C)C[C@H](NC(=O)[C@H](CCN)NC(=O)[C@H](CC(=O)O)NC(=O)[C@H](CC(N)=O)NC(=O)CCCNC(=O)c1ccc(Oc2ccccc2)cc1)C(=O)N(C)[C@@H](CCC(=O)O)C(=O)N1CCC[C@H]1CC(N)=O ({Benzoyl(4-OPh)-GABA}-ND[Dab]L[NMeE][β3hP]-NH2),–,–,–,2000 nM,–,27200
CC(C)C[C@H](NC(=O)[C@H](CCN)NC(=O)[C@H](CC(=O)O)NC(=O)[C@H](CC(N)=O)NC(=O)CCCNC(=O)c1ccc(Oc2ccc(F)cc2)cc1)C(=O)N(C)[C@@H](CCC(=O)O)C(=O)N1CCC[C@H]1CC(N)=O ({X2-GABA}-ND[Dab]L[NMeE][β3hP]-NH2),–,–,–,1290 nM,0.11 nM,40700
CNC(=O)[C@H](Cc1c[nH]c2ccccc12)NC(=O)[C@@H](CC(=O)NO)CC(C)C [ILOMASTAT],0.46 nM,1.1 nM,5.1 nM,0.28 nM,–,–
